Assay results reported in paper PMC11718441, “Bis-3-chloropiperidines: a novel motif for anthelmintic drug design” (RSC Advances, 2025).
≈ marks a conversion by molar mass, not a printed value. Where two headings read alike, the source gives them in different places.

Experiments:
[1] = system: Septoria tritici MUCL45408; experiment: Minimum inhibitory concentration (MIC), S. tritici (ATP quantification); assay type: cell-based; conditions: for MIC: Zymoseptoria tritici, read-out: MIC St
Description: (§1) The minimum inhibitory concentration (MIC) of the synthesized compounds was initially determined against three microbial indicator strains (Escherichia coli ATCC35218, […] ATCC33592, Septoria tritici MUCL45408). […]
(§2) 2. Microbial and parasitological studies
(§3) The minimum inhibitory concentration (MIC) of the synthesized compounds was determined against three microbial indicator strains (E. coli ATCC35218, S. aureus ATCC33592 and S. tritici MUCL45408) as previously described.1,2 All samples were dissolved in DMSO and tested in triplicate. Briefly, a pre-culture of E. coli and S. aureus was prepared by incubating the strains in cation adjusted Mueller Hinton 2 broth (Becton Dickinson, Sparks, NV, USA) at 37°C and 180 rpm overnight. The cell density of adjusted to 5 × 10^5 cells/mL before assays were incubated at 37 °C, 180 rpm and 85% rH. Three distinct dilution series of standard antibiotics (gentamicin, rifampicin, and tetracycline) were used as positive controls on each assay plate. Inoculated medium without test compound or positive control was used as negative control.
Medium background was averaged from 5 replicates. The turbidity of each well was measured with a microplate spectrophotometer at 600 nm (LUMIstar® Omega, BMG Labtech) and growth inhibition was calculated relative to the absorption of the controls. For S. tritici MUCL45408 inoculated at a density of 1 × 10^5 cells/mL in potato […]
dextrose medium. Septoria assay plates were incubated for 4 days at 25 °C, 180 rpm and 85% rH. Tebuconazole, amphotericin B, and nystatin were used as positive controls. Cell viability was evaluated via ATP quantification (BacTiter-Glo™, Promega GmbH, Walldorf, Germany) according to the manufacturer’s instructions. […]

[2] = system: Escherichia coli ATCC35218; experiment: microbe, parasite or virus in culture; assay type: cell-based; conditions: ATCC35218, read-out: MIC Ec
Description: as §1, §2
as §3, with “and tetracycline) were used as positive controls on each assay plate. Inoculated medium without test compound or positive control was used as negative control.” left out
(§4) medium without test compound or positive control was used as negative control.
(§5) Medium background was averaged from 5 replicates. The turbidity of each well was […]

S. aureus ATCC33592 = experiment: microbe, parasite or virus in culture; assay type: cell-based; conditions: Staphylococcus aureus, ATCC33592, read-out: MIC Sa
Description: as §1, §2
as §3, with “and tetracycline) were used as positive controls on each assay plate. Inoculated medium without test compound or positive control was used as negative control.” left out
as §4, §5

C. elegans N2 = experiment: whole plant or invertebrate; assay type: cell-based, Caenorhabditis elegans; conditions: Caenorhabditis elegans, 48 h, read-out: MMIC N2
Excerpt: (§6) The cuticle of C. elegans strain DC19 is known to be more permeable for small molecules compared to the wildtype N2.[30] DC19 is thereby considered an informative drug-sensitive test organism. In our assays, we determined the minimum mobility inhibitory concentration (MMIC) as a proxy for anthelmintic activity. […] In contrast, MMICs of some small molecule anthelmintics such as albendazole, mebendazole or PF-1022A were lower for DC19 (Fig. S1 ^†). […]
(§7) 2.2 In vitro tests against Caenorhabditis Elegans
(§8) The minimal motility inhibitory concentration (MMIC) of compounds 1-22 against C. elegans was determined as described before.3 Both strains, C. elegans N2 and DC19 were treated identically. Briefly, pre-cultures of C.elegans were kept on NGM agar plates infused with auxotrophic E.coli OP50 as food source.4 After 4 days the plates contained sufficient gravid worms, respectively. Worms were washed from the plates with M9 buffer using wide bore pipette tips. Egg preparation was carried out by treating the harvested worms with an alkaline hypochlorite solution (5 M NaOH + 5 % NaOCl 1:2) in polypropylene tubes. Larvae and adult […]
(§9) We carried out 3 washing steps (M9 buffer) to remove carry-over hypochlorite solution. Subsequently, the eggs were incubated overnight in NGM broth on a rotator to yield synchronized hatched L1/L2 larvae. The larvae solution was adjusted to 100 worms/mL and supplemented with cholesterol (5 µg/mL), carbenicillin (25 µg/mL) and E.coli OP50 (0.5%). This assay solution was distributed into 96 well plates and incubated with a dilution series of compounds 1-22 (64-0.5 µg/mL). An additional eight-point dilution series of ivermecin (40 – 0.3 ng/mL) was used as positive control on each assay plate. Solvent background was controlled by supplementation of pure DMSO without any compound. Assays were incubated for 2 days at room temperature. Finally, a cell imaging multimode reader (Cytation™ 5) was used to record short videos (1.5 seconds) of each individual test well. The videos were used to evaluate the worm motility.

Schistosoma mansoni = experiment: In vitro tests against Schistosoma mansoni (vitality parameters of adult worm pairs); assay type: cell-based
Description: Subsequently, we tested whether compounds with nematocidal activity display a broader activity also against parasitic flatworms. To this end, in vitro tests against the blood fluke S. mansoni were conducted (Fig. 4). The worms were incubated in presence of 10 and 20 μM of compounds 1–22 and phenotypic vitality parameters (separation of worm pairs, detachment of suckers from the bottom of the well and weakening of body movements) were assessed as previously described.[31] Compounds reaching 100% effect strength in one of the parameters within 7 days were considered active. Reduction of motility is considered most relevant for antischistosomal drug candidates.[32] In addition, loss of sucker activity would make parasites drifting off from their host habitat (mesenteric veins) and with pair separation, the production of pathology-causing eggs eventually ceases.[33] […] For some molecular targets e.g. glutamate and GABA chloride channels (ivermecin, abamectin) and β-tubulin (albendazole, mebendazole) the C. elegans assays results were transferable to Schistosoma, while for others e.g. acetylcholin mimetic (levamisole) the C. elegans MMIC was not predicative (Fig. S1 ^†).
2.2 Parasitological studies
Animal experiments were performed in accordance with Directive 2010/63/EU on the protection of animals used for scientific purposes and the German Animal Welfare Act. The experiments were approved by the Regional Council (Regierungspraesidium) Giessen (V54 – […]
A Liberian strain of S. mansoni was maintained in the freshwater snail Biomphalaria glabrata as intermediate host and Syrian hamsters (Mesocricetus auratus) as final host (Janvier Labs, France).5,6 Hamsters were infected at 8 weeks of age with 1,750 cercariae by using the paddling method.7 Adult worms were collected at 46 days p.i. by hepatoportal perfusion and cultured in M199 medium (Sigma-Aldrich, Germany) supplemented with 10% Newborn Calf Serum (NCS, Sigma-Aldrich), 1% 1 M HEPES (ThermoFisher Scientific, USA) and 1% ABAM solution (10,000 units/ml penicillin, 10 mg/ml streptomycin and […] amphotericin B; Sigma-Aldrich, Germany) at 37 °C, 5% CO2 and humidified atmosphere.
2.2.3. In vitro tests against Schistosoma mansoni
Test compounds were added at 10 µM or 20 µM in supplemented M199 medium to schistosomes (5 worm pairs per replicate) followed by a 7 d in vitro culture. Worms receiving the solvent DMSO at equal dilution served as negative control. The following vitality parameters were assessed every 24 h by bright field microscopy using a Leica DM IL inverted microscope and x2.5 objective lens: separation of worm pairs into male and female worms; detachment of suckers from the bottom; and weakening of body movements. Worm motility was scored as described previously, 8 with the scores 3 (normal motility), 2 (reduced motility), 1 (minimal and sporadic movements), 0 (no movements within 20 sec; dead worms). An average score of all worms per well was calculated to obtain a motility score. An average motility score of 0, separation of all pairs or detachment of all worms per well was considered

MDCK II cells = experiment: In vitro cytotoxicity, CellTiter-Glo, MDCK II cells; conditions: 100 μM; for MDCKII cytotoxicity: 48 h, cell viability less than 80% relative to DMSO control = cytotoxic
[3] = system: C. elegans strains N2 and DC19; experiment: MMIC against C. elegans, strains N2 and DC19 reported together or strain not stated; assay type: cell-based; conditions: Caenorhabditis elegans, 48 h, C. elegans, read-out: MMIC N2 and DC19
Excerpt: as §6, §7, §8, §9

C. elegans DC19 = experiment: whole plant or invertebrate; assay type: cell-based, Caenorhabditis elegans; conditions: Caenorhabditis elegans, 48 h, read-out: MMIC DC19
Excerpt: as §6, §7, §8, §9

[4] = 96 h, S. tritici MUCL45408, 4 days

C[C@@H]1[C@H](O)[C@@H](C)/C=C/C=C/C=C/C=C/C=C/C=C/C=C/[C@H](O[C@@H]2O[C@H](C)[C@@H](O)[C@H](N)[C@@H]2O)C[C@@H]2O[C@](O)(C[C@@H](O)C[C@@H](O)[C@H](O)CC[C@@H](O)C[C@@H](O)CC(=O)O[C@H]1C)C[C@H](O)[C@H]2C(=O)O [AMP, amphotericin B, reference compound]
MIC ([1]; MUCL45408, 96 h): 0.125 µg/mL (≈ 0.135 µM)

CC1(C)CC(Cl)CN(Cc2cccc(CN3CC(Cl)CC(C)(C)C3)c2)C1 (stereo not drawn) [Compound 1]
MIC [2]: > 64 µg/mL | MIC (S. aureus ATCC33592): > 64 µg/mL | MIC ([1]; MUCL45408, 96 h): 64 µg/mL (≈ 161 µM) | minimal effective concentration (C. elegans N2): 64 µg/mL | activity against S. mansoni (100% effect strength in one parameter within 7 days = active) (Schistosoma mansoni; 10 or 20 μM): Schistosoma-specific | motility score (Schistosoma mansoni; score 3 normal motility to 0 dead, paragraph on 20 μM): 1–1.2 | cytotoxicity against MDCK II (in words) (MDCK II cells): cytotoxic | MDCKII cytotoxicity (MDCK II cells): + (“+” (toxic))

CC1(C)CC(Cl)CN(Cc2cccc(CN3CC(Cl)CC(C)(C)C3)n2)C1 (stereo not drawn) [Compound 6]
MIC [2]: > 64 µg/mL | MIC (S. aureus ATCC33592): 64 µg/mL (≈ 161 µM) | MIC ([1]; MUCL45408, 96 h): > 64 µg/mL | minimal effective concentration (C. elegans N2): 64 µg/mL | MDCKII cytotoxicity (MDCK II cells): + (“+” (toxic))

CC1(C)CC(Cl)CN(Cc2ccccc2CN2CC(Cl)CC(C)(C)C2)C1 (stereo not drawn) [Compound 8]
MIC [2]: > 64 µg/mL | MIC (S. aureus ATCC33592): > 64 µg/mL | minimal effective concentration (C. elegans N2; C. elegans N2, 2 days): 8 µg/mL | phenotypic changes / vitality parameters of Schistosoma (Schistosoma mansoni; up to 20 μM, in comparison to the untreated control): did not inflict any phenotypic changes | minimal effective concentration [3]: < 20 µg/mL

CCCCN1CC(Cl)CC(C)(C)C1 (stereo not drawn) [Compound 16]
MIC [2]: > 64 µg/mL | MIC (S. aureus ATCC33592): > 64 µg/mL | MIC ([1]; MUCL45408, 96 h): > 64 µg/mL | minimal effective concentration (C. elegans DC19): > 64 µg/mL | minimal effective concentration (C. elegans N2): > 64 µg/mL | MDCKII cytotoxicity (MDCK II cells): − (“−” (not toxic))

CCCCN1CC(Cl)CC2(CC2)C1 (stereo not drawn) [Compound 17]
MIC [2]: > 64 µg/mL | MIC (S. aureus ATCC33592): > 64 µg/mL | MIC [1, 4]: > 64 µg/mL | minimal effective concentration (C. elegans DC19; C. elegans DC19, 2 days): > 64 µg/mL | minimal effective concentration (C. elegans N2; C. elegans N2, 2 days): > 64 µg/mL | MDCKII cytotoxicity (MDCK II cells): − (“−” (not toxic))

CC1(C)CC(Cl)CN(Cc2ccccc2)C1 (stereo not drawn) [Compound 18]
MIC [2]: > 64 µg/mL | MIC (S. aureus ATCC33592): > 64 µg/mL | MIC ([1]; MUCL45408, 96 h): > 64 µg/mL | minimal effective concentration (C. elegans DC19): 32 µg/mL | minimal effective concentration (C. elegans N2): > 64 µg/mL | MDCKII cytotoxicity (MDCK II cells): + (“+” (toxic))

Cl[C@H]1CCCN(Cc2ccccc2)C1 [Compound 19]
MIC [2]: > 64 µg/mL | MIC (S. aureus ATCC33592): > 64 µg/mL | MIC [1, 4]: > 64 µg/mL | minimal effective concentration (C. elegans DC19; C. elegans DC19, 2 days): > 64 µg/mL | minimal effective concentration (C. elegans N2; C. elegans N2, 2 days): > 64 µg/mL | MDCKII cytotoxicity (MDCK II cells): − (“−” (not toxic))

Cl[C@@H]1CCCN(Cc2ccccc2)C1 [Compound 20]
MIC [2]: > 64 µg/mL | MIC (S. aureus ATCC33592): > 64 µg/mL | MIC [1, 4]: > 64 µg/mL | minimal effective concentration (C. elegans DC19; C. elegans DC19, 2 days): > 64 µg/mL | minimal effective concentration (C. elegans N2; C. elegans N2, 2 days): > 64 µg/mL | MDCKII cytotoxicity (MDCK II cells): − (“−” (not toxic))

COc1cc(CN2CC(O)CC(C)(C)C2)cc(CN2CC(O)CC(C)(C)C2)c1 (stereo not drawn) [Compound 22]
MIC [2]: > 64 µg/mL | MIC (S. aureus ATCC33592): > 64 µg/mL | MIC [1, 4]: > 64 µg/mL | minimal effective concentration (C. elegans DC19; C. elegans DC19, 2 days): > 64 µg/mL | minimal effective concentration (C. elegans N2; C. elegans N2, 2 days): > 64 µg/mL | MDCKII cytotoxicity (MDCK II cells): − (“−” (not toxic))

C[C@@H]1[C@H](O)[C@@H](C)/C=C/C=C/CC/C=C/C=C/C=C/C=C/C(O[C@H]2O[C@H](C)[C@@H](O)[C@H](N)[C@@H]2O)CC2O[C@](O)(CC(O)C(O)CCC(O)CC(O)CC(O)CC(=O)O[C@H]1C)CC(O)C2C(=O)O (stereo partly drawn) [NYS, nystatin, reference compound]
MIC St ([1]; S. tritici MUCL45408, 4 days): 0.25 µg/mL (≈ 0.27 µM)

CC(C)(C)C(O)(CCc1ccc(Cl)cc1)Cn1cncn1 (stereo not drawn) [TEB, tebuconazole, reference compound]
MIC [1, 4]: > 0.03 µg/mL
